Data set [1] concerns patients with relapsed or refractory acute myeloid leukemia (R/R AML). Briefly: Phase 1b/2 study (NCT03303339) of onvansertib in combination with decitabine. The data set is classed as in vivo. Particulars: oral, days 1 through 5, in combination with decitabine 20 mg/m^2 intravenously. From the text: The terms “complete remission” or “complete recovery” as used herein can refer to the absence of extramedullary disease (e.g., leukemic cell aggregates outside of bone marrow), <5% blasts in the bone marrow, absence of circulating blasts and blasts with Auer rods (e.g., inclusion bodies), and platelets≥100×10^9/L and neutrophils≥1.0×10^9/L. The term “complete remission with incomplete hematologic recovery” can refer to all CR criteria except for residual neutropenia (neutrophils<1.0×10^9/L) or thrombocytopenia (platelets<100×10^9/L). The term “morphologic leukemia free state” (MFLS) can refer to <5% blasts in the bone marrow with no blasts with Auer rods and no extramedullary disease. The terms “partial response” or “partial remission” can refer to the presence of all hematologic criteria of CR, decrease of bone marrow blast percentage to 5% to 25%, and/or decrease of pretreatment bone marrow blast percentage by at least 50%. The term “Bone marrow response” (BMR) can refer to at least 50% decrease in bone marrow blast from baseline. In some embodiments, the term “overall response rate” (ORR) can refer to the combined CR, CRi, MFLS, and PR. In some embodiments a combined CR/CRi value is reported. […]

Data set [2] concerns adult subjects with advanced/metastatic solid tumors. As to conditions: cited from earlier work.
Another data set addresses PLK1 (Homo sapiens, UniProt P53350). Particulars: among a panel of 296 kinases, including other PLK members; cited from earlier work.
Data set [3] deals with cell lines, both from solid as well as hematologic tumors. Particulars: large number of cell lines; cited from earlier work.
For another data set, the system named is cancer cell lines. Particulars: cited from earlier work.
In a further data set the test system is xenograft tumor. Particulars: well tolerated doses, oral administration; cited from earlier work.
The test system of data set [4] is HT29 human colon adenocarcinoma xenografts. Particulars: combination with irinotecan compared to each agent alone; cited from earlier work.
In data set [5] the test system is disseminated model of AML. Particulars: combination therapy with cytarabine; cited from earlier work.
The conditions of data set [6]: rodent and nonrodent species; cited from earlier work.
For data set [7] the following is noted: in vivo; cited from earlier work.

Bounds are passed on as bounds.

Sequence of PLK1 (P53350 whole entry): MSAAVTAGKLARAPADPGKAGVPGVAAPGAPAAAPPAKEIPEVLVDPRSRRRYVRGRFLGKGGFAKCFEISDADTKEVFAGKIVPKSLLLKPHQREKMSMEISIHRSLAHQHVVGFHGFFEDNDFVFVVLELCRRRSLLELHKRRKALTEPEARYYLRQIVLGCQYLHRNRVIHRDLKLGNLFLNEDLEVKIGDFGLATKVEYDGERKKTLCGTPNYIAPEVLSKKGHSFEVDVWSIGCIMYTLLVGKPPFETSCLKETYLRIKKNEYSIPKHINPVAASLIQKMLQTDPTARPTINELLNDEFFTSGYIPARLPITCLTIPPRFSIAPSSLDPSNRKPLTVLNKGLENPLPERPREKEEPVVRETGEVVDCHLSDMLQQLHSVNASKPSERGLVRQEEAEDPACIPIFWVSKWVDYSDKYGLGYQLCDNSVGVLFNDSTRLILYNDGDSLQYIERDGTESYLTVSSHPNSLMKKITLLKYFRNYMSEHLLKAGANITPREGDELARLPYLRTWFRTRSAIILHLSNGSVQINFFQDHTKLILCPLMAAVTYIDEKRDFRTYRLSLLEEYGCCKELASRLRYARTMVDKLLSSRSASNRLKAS

For the molecule `CN1CCN(c2ccc(OC(F)(F)F)c(Nc3ncc4c(n3)-c3c(c(C(N)=O)nn3CCO)CC4)c2)CC1` [onvansertib, 1-(2-hydroxyethyl)-8-{[5-(4-methylpiperazin-1-yl)-2-(trifluoromethoxy)phenyl]amino}-4,5-dihydro-1H-pyrazolo[4,3-h] quinazoline-3-carboxamide], the maximum tolerated dose in data set [1] is 60 mg/m^2. Moreover, the “recommended phase 2 dose” value in data set [2] (advanced/metastatic solid tumors) was 24 mg/m^2. Besides, in data set [2] (in vivo), the primary dose-limiting toxicities result is “neutropenia and thrombocytopenia”. For the same molecule, the “patients with stable disease” value in data set [2] (of 16 evaluable patients) is reported as 5 patients. Besides, in data set [2] (reversible), the “recovery of hematologic toxicities” value is at most 3 weeks. At PLK1, the “specificity for PLK1” value was “high specificity”. In addition, the “potency in proliferation assays” value in data set [3] was “low nanomolar activity”. For the same molecule, the “effect on cell cycle” value in the data set with cancer cell lines is recorded as “potently causes a mitotic cell-cycle arrest followed by apoptosis”. The xenograft tumor growth result with xenograft tumor was “inhibits xenograft tumor growth”. For the same molecule, in [4], the tumor regression result was “enhanced tumor regression”. Further, the survival of animals entry in [5] is on record as “prolonged survival”. Moreover, the oral bioavailability entry in data set [6] was “good oral bioavailability”. Besides, in [7], the half-life result is listed as “about 24 hours”.
